Experimental findings from article PMC10220285, “Development of an assay pipeline for the discovery of novel small molecule inhibitors of human glutathione peroxidases GPX1 and GPX4” (Redox Biology, 2023) are described below.

Molecules are shown by their SMILES. pIC50: −log10 of the molar value.

Experiment [1] deals with T1, GR (glutathione reductase) (Homo sapiens, UniProt P00390).
T1 construct: made in house
T1 sequence (P00390 44-522): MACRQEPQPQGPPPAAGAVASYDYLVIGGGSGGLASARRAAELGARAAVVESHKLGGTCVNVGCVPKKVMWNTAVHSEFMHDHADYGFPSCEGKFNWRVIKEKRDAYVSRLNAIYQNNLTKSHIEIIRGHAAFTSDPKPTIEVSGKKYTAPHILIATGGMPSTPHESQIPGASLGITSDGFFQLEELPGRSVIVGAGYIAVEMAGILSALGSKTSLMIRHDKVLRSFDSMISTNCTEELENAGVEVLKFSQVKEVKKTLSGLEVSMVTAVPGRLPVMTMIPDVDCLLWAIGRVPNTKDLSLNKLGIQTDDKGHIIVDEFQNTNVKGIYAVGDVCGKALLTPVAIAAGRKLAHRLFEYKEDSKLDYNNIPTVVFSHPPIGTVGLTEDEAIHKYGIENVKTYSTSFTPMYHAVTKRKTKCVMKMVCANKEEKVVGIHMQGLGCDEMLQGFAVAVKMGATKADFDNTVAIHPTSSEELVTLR
The experiment in a line: GR counter-assay. Format: biochemical. The settings on record: Fig. 9 pan-selenoprotein inhibitors. Here is the method: The compound plates were prepared as described previously. Purified recombinant human GPX1, GPX2, GPX4, GR, and TXNRD1 were produced and purified as previously reported [[48], [49], [50]]. As production of GPX2 was not optimized at the onset of screening, only GPX1 and GPX4 underwent library screening, and GPX2 was used as a follow-up.
Follow-up and orthogonal assays were run in quadruplicate unless otherwise stated. Assay schemes are illustrated in Fig. 1.
To identify false positive compounds that interfere with the primary assay through inhibition of GR, ‘hits’ from the primary screening were run against a GR counter assay to identify this possible off-target inhibition (Fig. 1C). Briefly, 3 μL enzyme mixture (100 nM GR, 0.01% BSA in TES buffer) was dispensed into columns […] of a 1536-well black medium-binding solid-bottom plates. The no-enzyme control (0.01% BSA in TES buffer) was included in column 1 and 2. Compounds and controls (23 nL) were added to each well with a pin tool (Kalypsys), and the plates were incubated for 30 min before 2 μL of substrate mixture (1 mM GSSG 0.4 mM NADPH in TES buffer) was added to each well and absorbance at 340 nm was measured at t = 0 and t = 20 min using a ViewLux Multimodal detector (PerkinElmer).
(§1) Percent activity was determined by first calculating delta RFU (decrease in fluorescence between t = 0 and t = 20/30 min in primary GPX, GR counter-screen, and TXNRD1 assays, or increase in fluorescence between t = 0 and t = 20 min in the Monobromobimane GPX endpoint assay), and normalizing enzyme activity using median delta RFU values for DMSO-treated enzyme control, and DMSO-treated no-enzyme controls.
Compound inhibitory activity in the qHTS assays was determined by plotting dose-response data for each sample and fitting with a four-parameter logistic fit to assess IC50 values, efficacy (maximal response), and AUC (area under the curve), as previously described. Hits were classified by the quality of the concentration-response curves (CRC). Curve classes −1.1 and −1.2 being the highest-confidence actives with complete CRCs and classes −2.1 and −2.2 being lower-confidence actives with incomplete CRCs.

Experiment [2] deals with T2, GPX1 (Homo sapiens, UniProt P07203).
T2 construct: made in house; host or cells: E. coli
T2 sequence (P07203 1-203): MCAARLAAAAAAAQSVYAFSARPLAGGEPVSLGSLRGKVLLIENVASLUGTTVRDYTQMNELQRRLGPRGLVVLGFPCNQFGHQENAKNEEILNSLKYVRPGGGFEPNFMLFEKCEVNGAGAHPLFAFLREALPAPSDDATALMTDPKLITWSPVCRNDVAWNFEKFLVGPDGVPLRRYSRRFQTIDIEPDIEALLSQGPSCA
The experiment in a line: Monobromobimane orthogonal endpoint assay, GPX1. Format: biochemical. The conditions noted are these: initial tests comparing GR-coupled and mBBr assay formats. Here is the method: As an orthogonal assessment of GPX inhibition, a monobromobimane endpoint assay was used (Fig. 1E). Briefly, 30 μL GPX mixture (0.01% BSA and enzyme [1 nM GPX1 or 25 nM GPX4] in TES buffer) was added to columns 2–24 of 384-well black medium-binding plates (Greiner) using a BioRAPTR FRD. TES buffer was used as a no-enzyme control in column 1. Compounds and controls were added in 11-point dose-response titration and incubated with enzyme for 30 min whereupon 10 μL of 400 μM GSH in TES buffer was added before starting the reaction with the addition of 10 μL 200 μM CHP and the reaction was left at room temperature for 10 min (GPX1) or 15 min (GPX4). Upon GPX activity, GSH was depleted over time, whereupon 500 μM mBBr was added and fluorescence at 394/490 was measured using a Viewlux multimodal detector every 20 s for 20 min.
as §1
Monobromobimane (mBBr) is a heterocyclic compound that reacts readily with low molecular weight thiols, like glutathione. […]

The target of experiment [3] is T2, GPX1. The experiment in a line: nanoDSF thermal stabilization, GPX1. Format: binding. Here is the method: Thermal stabilization of enzyme ± DMSO or ± compound was carried out in a Prometheus NT.48 instrument (NanoTemper Technologies) with an excitation wavelength of 280 nm. Intrinsic fluorescence at 330 nm and 350 nm was monitored while heating. Capillaries were filled with ∼10 μL of a solution of GPX1/4 (1 mg/mL), ± small molecule (100 μM) or DMSO, in TES buffer and placed into the instrument. The capillaries were subjected to a temperature range from 30 to 90 °C at a ramp rate of 2 °C/min. The ratio of the recorded emission intensities (350nm/330 nm) were plotted as a function of temperature. This ratio and first derivatives were calculated using the NanoTemper software and were plotted using GraphPad Prism.
In general terms: In DSF a fluorescence change marks the thermal transition of the protein.

For the molecule `O=S(=O)(O)CC(S)CS` (stereo not shown) [2,3-dimercaptopropanesulfonate], the “inhibition of GR” value in experiment [1] is listed as “not GR”.
Take `CC(=O)OC[C@H]1O[C@@H]([S-])[C@H](OC(C)=O)[C@@H](OC(C)=O)[C@@H]1OC(C)=O.CCP(CC)CC.[Au+]` [Auranofin]: at GPX1 [2], the negative logarithm of the IC50 (pIC50) (as a rule, −log10 of the IC50, conventionally taken in molar units) is 5.28. Moreover, at GPX1 [3] (100 μM small molecule vs DMSO control, first or only inflection point), the “GSH Binding (ΔTm) GPx1; shift in nanoDSF melting temperature” value was “+8.3 °C”. On GPX1 [3] (nanoDSF), the “thermal stabilization of GPX1” value is “significant shifts in the melting temperature of GPX1”.
